≈ marks a conversion by molar mass, not a printed value.
Tests used:
Kocuria rhizophila = experiment: Antimicrobial activity against Kocuria rhizophila ATCC9341 assessed as inhibition of bacterial growth incubated for 48 hrs by liquid microculture method; type: functional
Staphylococcus aureus = experiment: Antimicrobial activity against Staphylococcus aureus FDA209P JC-1 assessed as inhibition of bacterial growth incubated for 48 hrs by liquid microculture method; type: functional
Escherichia coli = experiment: Antimicrobial activity against Escherichia coli NIHJ JC-2 assessed as inhibition of bacterial growth incubated for 48 hrs by liquid microculture method; type: functional
[1] = system: Agrobacterium tumefaciens; experiment: Antimicrobial activity against Rhizobium radiobacter NBRC14554 assessed as inhibition of bacterial growth incubated for 48 hrs by liquid microculture method; type: functional
[2] = system: Colletotrichum gloeosporioides; experiment: Antimicrobial activity against Glomerella cingulata NBRC5907 assessed as inhibition of […] growth incubated for 48 hrs by liquid microculture method; type: functional
Trichophyton rubrum = experiment: Antimicrobial activity against Trichophyton rubrum NBRC5467 assessed as inhibition of […] growth incubated for 48 hrs by liquid microculture method; type: functional
Candida albicans = experiment: Antimicrobial activity against Candida albicans NBRC0197 assessed as inhibition of […] growth incubated for 48 hrs by liquid microculture method; type: functional
P388 = experiment: Cytotoxicity against mouse P388 cells assessed as cell growth inhibition measured after 48 hrs by MTT assay; type: functional, cell-based; settings: P388, 48 h

SMILES | MIC (Kocuria rhizophila) | MIC (Staphylococcus aureus) | MIC (Escherichia coli) | MIC [1] | MIC [2] | MIC (Trichophyton rubrum) | MIC (Candida albicans) | IC50 (P388)
C/C=C/c1ccccc1/C=C/C=C/C(O)Cc1cc(=O)c2ccccc2[nH]1 (racemic) | 6.3 µg/mL (≈ 17.6 µM) | 13 µg/mL (≈ 36.4 µM) | > 100 µg/mL | 50 µg/mL (≈ 140 µM) | 13 µg/mL (≈ 36.4 µM) | 6.3 µg/mL (≈ 17.6 µM) | > 100 µg/mL | 7.3 µM
C[C@@H]1[C@H](O)[C@@H](C)/C=C/C=C/C=C/C=C/C=C/C=C/C=C/[C@H](O[C@@H]2O[C@H](C)[C@@H](O)[C@H](N)[C@@H]2O)C[C@@H]2O[C@](O)(C[C@@H](O)C[C@@H](O)[C@H](O)CC[C@@H](O)C[C@@H](O)CC(=O)O[C@H]1C)C[C@H](O)[C@H]2C(=O)O [AMPHOTERICIN B] |  |  |  |  | 1.3 µg/mL (≈ 1.41 µM) | 0.78 µg/mL (≈ 0.844 µM) | 0.78 µg/mL (≈ 0.844 µM) | 
COc1cccc2c1C(=O)c1c(O)c3c(c(O)c1C2=O)C[C@@](O)(C(=O)CO)C[C@@H]3O[C@H]1C[C@H](N)[C@H](O)[C@H](C)O1 [DOXORUBICIN] |  |  |  |  |  |  |  | 0.08 µM
C/C=C/c1ccccc1C/C=C/C=C\CC(=O)O | 13 µg/mL (≈ 53.6 µM) | 6.3 µg/mL (≈ 26 µM) | > 100 µg/mL | 25 µg/mL (≈ 103 µM) | 6.3 µg/mL (≈ 26 µM) | 13 µg/mL (≈ 53.6 µM) | > 100 µg/mL | 1.2 µM
C/C=C/c1ccccc1C/C=C/C=C\Cc1cc(=O)c2ccccc2[nH]1 | 13 µg/mL (≈ 38.1 µM) | 25 µg/mL (≈ 73.2 µM) | > 100 µg/mL | 50 µg/mL (≈ 146 µM) | 25 µg/mL (≈ 73.2 µM) | 13 µg/mL (≈ 38.1 µM) | > 100 µg/mL | 10 µM
